≈ marks a conversion by molar mass, not a printed value.
Key:
[1] = Unbound Cmax in Swiss mouse at 20 mg/kg, po administered as single dose via gavage measured over 24 hrs by LC-MS analysis; type: ADME, organism-based; conditions: in vivo
[2] = Apparent half-life in Swiss mouse at 20 mg/kg, po administered as single dose via gavage measured over 24 hrs by LC-MS analysis; type: ADME, organism-based; conditions: in vivo
[3] = Lipophilicity, logD of the compound at pH 7.4; type: physicochemical; conditions: buffer
[4] = Volume of distribution at steady state in Sprague-Dawley rat at 1.9 mg/kg, iv administered as infusion for 10 mins by LC-MS analysis; type: ADME, organism-based; conditions: in vivo
[5] = Intrinsic clearance in rat liver microsomes assessed per mg protein at 1 uM by LC-MS analysis; type: ADME, Microsome; conditions: microsomes, 1 µM
[6] = Inhibition of N-terminal His6-tagged dog DHODH expressed in Escherichia coli BL21 using L-DHO as substrate and CoQ as co-substrate by DCIP dye based spectrophotometric assay; parameters: species or system Canis lupus familiaris
[7] = Inhibition of N-terminal His6-tagged Plasmodium vivax DHODH expressed in Escherichia coli BL21 using L-DHO as substrate and CoQ as co-substrate by DCIP dye based spectrophotometric assay
[8] = Protein binding in Swiss mouse plasma at 20 mg/kg, po administered as single dose via gavage measured over 24 hrs by LC-MS analysis; type: ADME, organism-based; conditions: read-out: PPB (converted)
[9] = Elimination half-life in Swiss mouse at 20 mg/kg, po administered as single dose via gavage measured over 24 hrs by LC-MS analysis; type: ADME, organism-based; conditions: in vivo, read-out: beta t1/2 (converted)
[10] = AUC (0 to infinity) in Sprague-Dawley rat at 1.9 mg/kg, iv administered as infusion for 10 mins by LC-MS analysis; type: ADME, organism-based; parameters: route intravenous, dose 1.9 mg/kg, time 10 min; conditions: in vivo
[11] = Oral bioavailability in Sprague-Dawley rat at 18.2 mg/kg measured over 24 hrs by LC-MS analysis; type: ADME, organism-based; conditions: in vivo
[12] = Unbound AUC (0 to infinity) in Sprague-Dawley rat at 18.2 mg/kg, po measured over 24 hrs by LC-MS analysis; type: ADME, organism-based; conditions: in vivo
[13] = Intrinsic clearance in mouse liver microsomes at 1 uM by LC-MS analysis; type: ADME, Microsome
[14] = Protein binding in Sprague-Dawley rat plasma at 1.9 mg/kg, iv administered as infusion for 10 mins by LC-MS analysis; type: ADME, organism-based; conditions: read-out: PPB (converted)
[15] = target: Cytochrome P450 2C19 (Homo sapiens, UniProt P33261); assay: Inhibition of CYP2C19 in human liver microsomes using isoform-specific probe substrates in presence of NADPH-generating system by LC-MS analysis; type: ADME
Chain of Cytochrome P450 2C19 (P33261 whole entry, canonical isoform): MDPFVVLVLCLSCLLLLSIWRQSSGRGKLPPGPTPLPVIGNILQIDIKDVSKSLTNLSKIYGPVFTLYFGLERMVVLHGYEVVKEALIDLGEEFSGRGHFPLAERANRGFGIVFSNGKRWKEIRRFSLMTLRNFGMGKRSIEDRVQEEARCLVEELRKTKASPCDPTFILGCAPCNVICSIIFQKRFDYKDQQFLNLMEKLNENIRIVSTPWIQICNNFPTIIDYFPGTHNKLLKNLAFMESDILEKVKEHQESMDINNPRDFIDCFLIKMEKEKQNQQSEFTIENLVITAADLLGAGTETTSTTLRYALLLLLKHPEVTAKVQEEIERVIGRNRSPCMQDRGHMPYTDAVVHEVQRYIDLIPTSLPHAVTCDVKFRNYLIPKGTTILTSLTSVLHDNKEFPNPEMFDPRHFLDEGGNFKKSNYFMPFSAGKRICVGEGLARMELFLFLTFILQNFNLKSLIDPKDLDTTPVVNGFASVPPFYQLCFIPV

[16] = Unbound Cmax in Sprague-Dawley rat at 18.2 mg/kg, po measured over 24 hrs by LC-MS analysis; type: ADME, organism-based; conditions: in vivo
[17] = Protein binding in human plasma assessed as bound fraction by LC-MS analysis based ultracentrifugation assay; type: ADME, cell-free; conditions: read-out: PPB (converted)
[18] = Protein binding in rat plasma assessed as bound fraction by LC-MS analysis based ultracentrifugation assay; type: ADME, cell-free; conditions: read-out: PPB (converted)
[19] = Unbound AUC (0 to infinity) in Swiss mouse at 20 mg/kg, po administered as single dose via gavage measured over 24 hrs by LC-MS analysis; type: ADME, organism-based; conditions: in vivo
[20] = Solubility of compound in FeSSIF at pH 5 measured after 5 to 6 hrs by HPLC-UV based analysis; type: physicochemical; conditions: simulated gi fluid, time 5-6 hrs
[21] = AUC (0 to infinity) in Sprague-Dawley rat at 18.2 mg/kg, po measured over 24 hrs by LC-MS analysis; type: ADME, organism-based; parameters: route oral, dose 18.2 mg/kg, time >24; conditions: in vivo
[22] = test system: Plasmodium falciparum; assay: Antiplasmodial activity against Plasmodium falciparum 3D7 infected in po dosed NSG mouse assessed as reduction in parasitemia administered once daily for 4 consecutive days starting from day 3 post-infection and measured 24 hrs post last dose by flow cytometric analysis; type: functional; conditions: 3D7, po, 96 h, time 4 day
[23] = Solubility of compound in FaSSIF at pH 6.5 measured after 5 to 6 hrs by HPLC-UV based analysis
[24] = Cmax in Sprague-Dawley rat at 18.2 mg/kg, po measured over 24 hrs by LC-MS analysis; type: ADME, organism-based; parameters: route oral, dose 18.2 mg/kg, time >24; conditions: in vivo
[25] = Tmax in Swiss mouse at 20 mg/kg, po administered as single dose via gavage measured over 24 hrs by LC-MS analysis; type: ADME, organism-based; conditions: in vivo
[26] = Unbound AUC (0 to infinity) in Sprague-Dawley rat at 1.9 mg/kg, iv by LC-MS analysis; type: ADME, organism-based; conditions: in vivo
[27] = Intrinsic clearance in human pooled liver microsomes assessed per mg protein at 1 uM by LC-MS analysis; type: ADME, Microsome; conditions: microsomes, 1 µM
[28] = Unbound clearance in Sprague-Dawley rat at 1.9 mg/kg, iv administered as infusion for 10 mins by LC-MS analysis; type: ADME, organism-based; conditions: in vivo
[29] = Apparent half-life in Sprague-Dawley rat at 1.9 mg/kg, iv administered as infusion for 10 mins by LC-MS analysis; type: ADME, organism-based; conditions: in vivo, read-out: t1/2(app) (converted)
[30] = test system: Plasmodium falciparum; assay: Antiplasmodial activity against Plasmodium falciparum 3D7 infected in RBC assessed as reduction in parasitemia incubated for 72 hrs by SYBR green dye-based assay; type: functional, organism-based; conditions: rbc
[31] = Cmax in Swiss mouse at 20 mg/kg, po administered as single dose via gavage measured over 24 hrs by LC-MS analysis; type: ADME, organism-based; parameters: route oral, dose 20 mg/kg, time >24; conditions: in vivo
[32] = AUC (0 to infinity) in Swiss mouse at 20 mg/kg, po administered as single dose via gavage measured over 24 hrs by LC-MS analysis; type: ADME, organism-based; parameters: route oral, dose 20 mg/kg, time >24; conditions: in vivo
[33] = Kinetic solubility of compound in phosphate buffer at pH 6.5 measured after 30 mins by HPLC-UV based analysis; type: physicochemical; conditions: phosphate buffer, pH 6.5, read-out: Kinetic_solubility
[34] = Unbound volume of distribution at steady state in Sprague-Dawley rat at 1.9 mg/kg, iv administered as infusion for 10 mins by LC-MS analysis; type: ADME, organism-based; conditions: in vivo
[35] = in vivo; conditions: Sprague-Dawley, rat, po, 18.2 mg/kg
[36] = Inhibition of N-terminal His6-tagged Plasmodium falciparum DHODH expressed in Escherichia coli BL21 using L-DHO as substrate and CoQ as co-substrate by DCIP dye based spectrophotometric assay

For `Cc1cc(NC2CCc3cc(Cl)ccc3C2)n2nc(C(C)(F)F)nc2n1` (stereo in doubt), the fCmax [1] was 0.06 µM, the “t1/2(app)” value [2] was 1.9 h and the logD [3] was 3.9. For the same compound, the Vdss [4] was 1.5 L/kg, the “Intrinsic clearance in rat liver microsomes (uL/min/mg protein)” value [5] was 33 µL/min and the IC50 [6] was greater than 100000 nM. For the same compound, the IC50 [7] was 29 nM, the fraction unbound at 24 h [8] was 0.008 and the half-life [9] was 2 h. The AUC(0-inf) [10] was 24 µM·h, the bioavailability [11] was 100% and the fAUC [12] was 1.82 µM·h. The intrinsic clearance [13] was 44 µL/min, the fraction unbound at 10 min [14] was 0.008 and the IC50 [15] was greater than 20000 nM. The fCmax [16] was 0.19 µM, the fraction unbound [17] was 0.012 and the fraction unbound [18] was 0.008. The fAUC [19] was 0.16 µM·h, the solubility [20] was 211 µg/mL (≈ 558 µM) and the AUC(0-inf) [21] was 227 µM·h. It also gave an ED90 [22] greater than 30 mg/kg, a solubility [23] of 47 µg/mL (≈ 124 µM) and a Cmax [24] of 23.8 µM. It also gave a Tmax [25] of 1 h, a fAUC [26] of 0.19 µM·h and a microsomal intrinsic clearance [27] of less than 7 µL/min. The CL free [28] was 438 mL/min/kg, the half-life [29] was 7.1 h and the EC50 [30] was 3.8 nM. It also gave a Cmax [31] of 7 µM, an AUC [32] of 19.7 µM·h and a solubility kinetic at 0.5 h [33] of 3.1 µg/mL (≈ 8.2 µM). The fVdss [34] was 188 L/kg, the Tmax at 24 h [35] was 4 h and the IC50 [36] was 3.7 nM.

Reference: ChEMBL document CHEMBL4706474, “Tetrahydro-2-naphthyl and 2-Indanyl Triazolopyrimidines Targeting Plasmodium falciparum Dihydroorotate Dehydrogenase Display Potent and Selective Antimalarial Activity” (J Med Chem, 2016)
